Results as given in publication PMC3401280, “Moth Sex Pheromone Receptors and Deceitful Parapheromones” (PLoS ONE, 2012).
pEC50: −log10 of the molar value. Where a name gives a salt, the structure may show the parent alone. Read-outs that look alike come from different tables or passages of the source. Blank lines part the entries; values can stand above or below the compound they belong to.

Legend:
Type in all cases: cell-based
HvirOR13 (HR13) = target: T1, HvirOR13 (HR13) (Heliothis virescens, UniProt Q6A1K1); test: two-electrode voltage clamp in Xenopus oocytes
T1 construct: full ORF (AJ748328) in pGEMHE, expressed in Xenopus oocytes; with HvirOrco (HR2)
T1 sequence (Q6A1K1 1-425): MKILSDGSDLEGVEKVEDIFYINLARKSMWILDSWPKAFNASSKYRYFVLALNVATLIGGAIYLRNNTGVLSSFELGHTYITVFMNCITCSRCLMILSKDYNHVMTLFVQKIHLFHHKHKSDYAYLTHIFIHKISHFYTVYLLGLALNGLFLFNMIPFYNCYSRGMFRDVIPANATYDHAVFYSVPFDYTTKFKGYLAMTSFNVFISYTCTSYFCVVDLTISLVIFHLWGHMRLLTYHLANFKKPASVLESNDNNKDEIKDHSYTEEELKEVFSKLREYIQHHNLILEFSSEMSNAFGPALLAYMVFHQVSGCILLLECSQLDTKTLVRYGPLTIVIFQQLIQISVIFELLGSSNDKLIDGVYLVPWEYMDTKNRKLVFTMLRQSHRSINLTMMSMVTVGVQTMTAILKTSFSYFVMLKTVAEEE
T1 sequence (Q8MMI4 1-472 partner): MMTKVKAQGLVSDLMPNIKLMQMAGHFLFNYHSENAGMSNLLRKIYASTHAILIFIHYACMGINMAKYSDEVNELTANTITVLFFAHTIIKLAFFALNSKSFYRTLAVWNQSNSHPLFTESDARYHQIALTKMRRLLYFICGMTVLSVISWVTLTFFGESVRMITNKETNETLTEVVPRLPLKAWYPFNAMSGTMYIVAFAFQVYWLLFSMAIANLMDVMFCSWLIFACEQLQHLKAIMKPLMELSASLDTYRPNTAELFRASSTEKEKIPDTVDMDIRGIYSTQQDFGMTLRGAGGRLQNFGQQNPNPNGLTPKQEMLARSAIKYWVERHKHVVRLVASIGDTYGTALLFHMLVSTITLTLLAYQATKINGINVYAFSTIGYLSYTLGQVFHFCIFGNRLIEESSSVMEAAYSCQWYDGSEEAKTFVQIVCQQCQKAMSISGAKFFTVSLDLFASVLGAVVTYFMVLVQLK

AtraOR1 [1] = target: T2, AtraOR1 (Amyelois transitella, UniProt J7FXC2); test: two-electrode voltage clamp in Xenopus oocytes
T2 construct: full ORF (428 residues, JX173648) in pGEMHE, expressed in Xenopus oocytes; with AtraOrco
T2 sequence (J7FXC2 1-427): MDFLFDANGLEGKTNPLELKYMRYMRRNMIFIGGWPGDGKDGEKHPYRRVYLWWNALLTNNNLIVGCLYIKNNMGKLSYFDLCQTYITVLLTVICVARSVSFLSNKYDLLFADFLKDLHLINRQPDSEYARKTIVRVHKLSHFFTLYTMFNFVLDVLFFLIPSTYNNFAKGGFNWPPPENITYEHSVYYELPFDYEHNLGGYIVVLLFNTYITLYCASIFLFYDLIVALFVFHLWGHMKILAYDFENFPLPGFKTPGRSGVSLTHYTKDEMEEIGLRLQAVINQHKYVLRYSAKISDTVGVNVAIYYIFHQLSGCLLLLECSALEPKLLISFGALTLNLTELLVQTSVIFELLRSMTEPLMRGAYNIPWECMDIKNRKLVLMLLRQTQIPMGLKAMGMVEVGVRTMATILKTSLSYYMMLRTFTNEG
T2 sequence (J7G1V0 1-474 partner): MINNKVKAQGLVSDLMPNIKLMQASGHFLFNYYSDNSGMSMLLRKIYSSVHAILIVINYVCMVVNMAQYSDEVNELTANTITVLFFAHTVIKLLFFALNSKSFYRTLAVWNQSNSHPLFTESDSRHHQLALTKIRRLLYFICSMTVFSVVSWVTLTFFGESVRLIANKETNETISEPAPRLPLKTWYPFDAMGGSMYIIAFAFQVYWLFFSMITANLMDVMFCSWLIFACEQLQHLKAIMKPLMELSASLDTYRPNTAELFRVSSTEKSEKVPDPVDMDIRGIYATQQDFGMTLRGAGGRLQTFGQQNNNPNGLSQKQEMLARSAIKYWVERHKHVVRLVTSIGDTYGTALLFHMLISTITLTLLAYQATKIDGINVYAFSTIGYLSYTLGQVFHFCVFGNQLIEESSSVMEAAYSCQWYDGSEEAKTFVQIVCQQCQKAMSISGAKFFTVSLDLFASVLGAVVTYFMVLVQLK

AtraOR1 [2] = target: T2, AtraOR1; test: two-electrode voltage clamp in Xenopus oocytes, screened at […]

Structure (SMILES): CCCC/C=C\CCCCCCCCOC=O [Z9-14OFor, (9Z)-tetradecen-1-yl formate]
pEC50 (HvirOR13 (HR13)): 7.48

Structure (SMILES): CC/C=C\C=C/CCCCCCCCOC=O [Z9Z11-14OFor, (9Z,11Z)-tetradecadien-1-yl formate]
pEC50 (AtraOR1 [1]): 7.05

pEC50 (HvirOR13 (HR13); read-out: EC50): 6.82
Structure (SMILES): CCCC/C=C\CCCCCCCCCC=O [Z11-16Ald, (11Z)-hexadecenal]

Structure (SMILES): CC/C=C\C=C/CCCCCCCCCC=O [Z11Z13-16Ald, (11Z,13Z)-hexadecadienal]
pEC50 (AtraOR1 [1]): 6.30

Structure (SMILES): CC/C=C\C=C/CCCCCCCCCCO [Z11Z13-16OH, (11Z,13Z)-hexadecadien-1-ol]
two-electrode voltage clamp in Xenopus oocytes, screened at 100 μM (AtraOR1 [2]): AtraOR1•AtraOrco-expressing oocytes showed moderate response to Z11Z13-16OH
